{
  "source": "patent US20070037253A1",
  "about": "“Methods and compositions for treatment of arthritis and cancer” (priority 2003, published 2007)",
  "key": {"[1]": {"molecular_target": "T1, purified human synovial sPLA2 (human Type IIA sPLA2) (Homo sapiens, UniProt P14555)", "T1 construct": "purchased Cayman Chemicals, USA", "T1 sequence (P14555 21-144)": "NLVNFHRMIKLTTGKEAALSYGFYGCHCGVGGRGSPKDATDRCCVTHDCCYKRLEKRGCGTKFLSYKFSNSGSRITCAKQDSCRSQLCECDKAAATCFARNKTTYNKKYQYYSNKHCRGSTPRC", "test": "sPLA2 inhibition, 3H-arachidonate-labelled E. coli membrane assay", "assay_type": "biochemical", "conditions": "fixed peptide concentration (5 μM); 3H-labelled E. coli membrane assay; read-out: % Inhibition (mean ± SD)", "quoted_text": "In brief, [^3H] arachidonate-labeled E. coli membranes (0.005 mCi/mL; 5.8 μCi/μmol, NEN) were used as substrate, and 100 mM Tris-HCl—25 mM CaCl2, pH 7.5 solution as an assay buffer. The reaction mixture contained 20 μL of substrate, 0.85 pmole of purified human synovial sPLA2 (human Type IIA sPLA2, Cayman Chemicals, USA), and an increasing concentrations of the family of synthetic peptides derived from the sequence of PIP. The final volume of the reaction mixture was adjusted to 250 μL with an assay buffer. After incubation of the mixture (37° C., 1 h) and termination of the reaction with 750 μL of chilled PBS containing 1% BSA, microfuge tubes containing the samples were centrifuged (10,000 g at 4° C. for 15 min), and 500 μL aliquots of the supernatant taken to measure the amount of [^3H]-labeled arachidonate released from the E. coli membrane using liquid scintillation counting (Multipurpose Scintillation Counter LS 6500; Beckman, USA). As controls, sPLA2 was pre-incubated with the assay buffer alone. All samples, including controls, were performed in triplicate and plotted as the percentage inhibition relative to negative controls.\nA sigmoid dose response curve was generated to allow calculation of the IC50 values. All samples were performed in triplicate. Results were analyzed by nonlinear regression with GraphPad Prism (version 2.01) and expressed as the percentage of inhibition relative to control values."}, "[2]": {"molecular_target": "T2, MMP-2 (Oryctolagus cuniculus, UniProt P50757)", "T2 construct": "endogenous in cells; host or cells: HIG-82 rabbit synoviocytes (ATCC CRL-1832), IL-1β-induced, culture supernatant", "T2 sequence (P50757 110-662)": "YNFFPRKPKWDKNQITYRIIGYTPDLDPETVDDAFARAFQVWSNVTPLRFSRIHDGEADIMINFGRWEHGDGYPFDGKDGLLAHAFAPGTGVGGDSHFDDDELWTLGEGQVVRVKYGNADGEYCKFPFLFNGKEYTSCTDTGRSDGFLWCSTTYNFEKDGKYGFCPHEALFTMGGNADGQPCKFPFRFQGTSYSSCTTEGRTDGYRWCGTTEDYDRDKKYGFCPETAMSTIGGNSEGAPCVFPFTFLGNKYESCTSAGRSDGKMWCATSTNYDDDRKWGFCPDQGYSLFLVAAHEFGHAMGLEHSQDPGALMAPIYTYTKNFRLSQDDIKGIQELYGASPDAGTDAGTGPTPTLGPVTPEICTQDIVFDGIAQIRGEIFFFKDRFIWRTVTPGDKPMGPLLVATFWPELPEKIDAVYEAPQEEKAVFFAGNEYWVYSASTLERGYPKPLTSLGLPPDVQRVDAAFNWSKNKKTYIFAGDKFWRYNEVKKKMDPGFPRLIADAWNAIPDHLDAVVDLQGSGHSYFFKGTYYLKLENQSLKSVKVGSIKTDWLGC", "test": "Gelatin zymography of HIG-82 culture supernatant pre-incubated with inhibitors (FIG. 4A)", "assay_type": "biochemical, rabbit", "conditions": "APMA-activated HIG-82 supernatant, 5 μM peptide, 1 h at 25° C.", "description": "(§1) Gelatinase activity in the supernatants from cells induced with IL-1β (5 ng) for 48 h was analyzed by gelatin zymography. (A) Supernatants (activated with final 1 mM APMA at 30° C. for 30 min) were pre-incubated with various inhibitors. (5 μM peptides or 1-2 μM Calbiochem MMP inhibitor II) for 1 h at 25° C. prior to zymographic analyses—Lane 1, without activation (no inhibitor); Lane 2, with activation (no inhibitor); Lanes 3-8, with activation plus inhibitor: 3, P-NT-II; 4, PIP [59-67] monomer; 5, PIP [57-67] dimer; 6, PIP [59-67] dimer; 7 and 8, positive control MMP Inhibitor II (Calbiochem) at 1 and 2 μM concentrations. (B) Rabbit synovial fibroblasts were stimulated by IL-1β in the presence or absence of 1-10 μM of PIP [59-67] dimer for 48 h. Culture supernatants were concentrated by centrifugation (Centricon centrifugal filter devices, M.W. cutoff 30,000) and activated with APMA (1 mM final) before measurement of gelatinase activity by gelatin zymography. Lanes: 1 (−peptide−APMA); 2 (−peptide+APMA); 3 (+1 μM peptide+APMA); 4 (+5 μM peptide+APMA); 5 (+7.5 μM peptide+APMA); 6 (+10 μM peptide+APMA). […]"}, "[3]": {"molecular_target": "T3, MMP-9 (Oryctolagus cuniculus, UniProt P41246)", "T3 construct": "endogenous in cells; host or cells: HIG-82 rabbit synoviocytes (ATCC CRL-1832), IL-1β-induced, culture supernatant", "T3 sequence (P41246 107-707)": "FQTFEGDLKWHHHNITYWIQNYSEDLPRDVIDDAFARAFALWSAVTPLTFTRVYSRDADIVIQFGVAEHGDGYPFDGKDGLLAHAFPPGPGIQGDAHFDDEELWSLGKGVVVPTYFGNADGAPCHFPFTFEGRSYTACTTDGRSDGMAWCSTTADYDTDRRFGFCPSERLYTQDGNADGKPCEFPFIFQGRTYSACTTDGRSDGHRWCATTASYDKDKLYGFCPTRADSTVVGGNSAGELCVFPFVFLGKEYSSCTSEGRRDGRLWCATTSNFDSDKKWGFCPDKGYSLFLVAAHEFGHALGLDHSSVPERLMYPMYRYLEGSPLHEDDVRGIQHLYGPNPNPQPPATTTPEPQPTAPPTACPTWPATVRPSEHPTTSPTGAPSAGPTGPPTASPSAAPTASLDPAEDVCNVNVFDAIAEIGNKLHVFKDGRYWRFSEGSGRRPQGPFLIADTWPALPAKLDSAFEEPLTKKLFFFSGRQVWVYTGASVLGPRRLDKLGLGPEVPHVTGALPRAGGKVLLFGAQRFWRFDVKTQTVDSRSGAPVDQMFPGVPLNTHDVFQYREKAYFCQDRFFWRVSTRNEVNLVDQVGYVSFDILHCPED", "test": "Gelatin zymography of HIG-82 culture supernatant pre-incubated with inhibitors (FIG. 4A)", "assay_type": "biochemical, rabbit", "conditions": "APMA-activated HIG-82 supernatant, 5 μM peptide, 1 h at 25° C.", "description": "as §1"}, "[4]": {"molecular_target": "T4, secreted MMP-2 (Oryctolagus cuniculus, UniProt P50757)", "T4 construct": "endogenous in cells; host or cells: HIG-82 rabbit fibroblast-like synoviocytes (ATCC CRL-1832)", "T4 sequence (P50757 110-662)": "T2 sequence (P50757 110-662)", "test": "Secreted gelatinase activity of IL-1β-stimulated rabbit synovial fibroblasts treated with peptide (FIG. 4B)", "assay_type": "cell-based", "conditions": "cells treated with 1-10 μM peptide, IL-1β stimulation", "description": "(§2) Gelatinase activity in the supernatants from cells induced with IL-1β (5 ng) for 48 h was analyzed by gelatin zymography. (A) Supernatants (activated with final 1 mM APMA at 30° C. for 30 min) were pre-incubated with various inhibitors. (5 μM peptides or 1-2 μM Calbiochem MMP inhibitor II) for 1 h at 25° C. prior to zymographic analyses—Lane 1, without activation (no inhibitor); Lane 2, with activation (no inhibitor); Lanes 3-8, with activation plus inhibitor: 3, P-NT-II; 4, PIP [59-67] monomer; 5, PIP [57-67] dimer; 6, PIP [59-67] dimer; 7 and 8, positive control MMP Inhibitor II (Calbiochem) at 1 and 2 μM concentrations. (B) Rabbit synovial fibroblasts were stimulated by IL-1β in the presence or absence of 1-10 μM of PIP [59-67] dimer for 48 h. Culture supernatants were concentrated by centrifugation (Centricon centrifugal filter devices, M.W. cutoff 30,000) and activated with APMA (1 mM final) before measurement of gelatinase activity by gelatin zymography. Lanes: 1 (−peptide−APMA); 2 (−peptide+APMA); 3 (+1 μM peptide+APMA); 4 (+5 μM peptide+APMA); 5 (+7.5 μM peptide+APMA); 6 (+10 μM peptide+APMA).\n(§3) Gelatin zymography: human synovial fluid, purified human recombinant MMP-2 and -9 or APMA-activated concentrated culture supernatant samples (10 μL) was mixed (1:1) with Laemmli sample buffer, loaded on 4% acrylamide stacking gel and electrophoresed (120 V) at 4° C. on a 10% acrylamide-resolving minigel containing 0.1% gelatin. After electrophoresis for 1 h, the gels were soaked in 2.5% Triton X-100 on a shaker for 1 h, changing the solution after 30 min, to eliminate SDS. After overnight incubation in zymogen activation buffer [50 mM Tris-HCl, pH 7.5, containing 10 mM CaCl2 and 5 mM ZnCl2] at 37° C., the gels were rinsed in distilled water, and stained for 3 hr with […], after which clear bands of digested gelatin were clearly visible. The gels were briefly rinsed in distilled water and scanned by the Bio-Rad GS-710 Calibrated Imaging Densitometer.\n(§4) FLSC culture and inhibition of extracellular MMP activity: All experiments were performed on HIG-82 rabbit fibroblast-like synoviocytes (FLSCs) obtained from American Type Culture Collection (Manassas, Va.; catalogue No. CRL-1832). FLSCs were grown in Ham's F-12 medium containing 10% fetal bovine serum (FBS) and 1% penicillin/streptomycin, as recommended by the supplier. For experimental purposes, FLSCs were seeded into 12-well plates, grown to near confluence, and then serum starved (Ham's F-12 without FBS or penicillin/streptomycin) for 16 h. […] After activation with APMA (1 mM final concentration), the samples were measured for MMP-1 activity using BIOMOL AK-404 QuantiZyme Assay system, and for MMP-2 and -9 activities by gelatin zymography."}, "[5]": {"molecular_target": "T5, secreted MMP-9 (Oryctolagus cuniculus, UniProt P41246)", "T5 construct": "endogenous in cells; host or cells: HIG-82 rabbit fibroblast-like synoviocytes (ATCC CRL-1832)", "T5 sequence (P41246 107-707)": "as above", "test": "Secreted gelatinase activity of IL-1β-stimulated rabbit synovial fibroblasts treated with peptide (FIG. 4B)", "assay_type": "cell-based", "conditions": "cells treated with 1-10 μM peptide, IL-1β stimulation", "description": "as §2, §3, §4"}},
  "note": "Where a SMILES comes first, the peptide text is derived from it.",
  "data": [
    {"molecule": "CC[C@H](C)[C@H](NC(=O)[C@H](CC(=O)O)NC(=O)[C@@H](N)C(C)C)C(=O)N[C@@H](Cc1c[nH]cn1)C(=O)N[C@H](C(=O)N[C@@H](Cc1c[nH]c2ccccc12)C(=O)N[C@@H](CC(=O)O)C(=O)NCC(=O)N[C@H](C(=O)N[C@H](C(=O)N[C@@H](CC(=O)O)C(=O)N[C@H](C(=O)N[C@@H](Cc1c[nH]cn1)C(=O)N[C@H](C(=O)N[C@@H](Cc1c[nH]c2ccccc12)C(=O)N[C@@H](CC(=O)O)C(=O)NCC(=O)N[C@H](C(=O)O)C(C)C)C(C)C)[C@@H](C)CC)C(C)C)C(C)C)C(C)C", "note": "[PIP [59-67] dimer] (H-VDIHVWDGVVDIHVWDGV-OH; N-terminus and C-terminus assumed)", "values": [
      {"measurement": "inhibition at 5 µM", "setting": "[1]", "result": "74.5 ± 4.21", "unit": "%"},
      {"measurement": "MMP-2 gelatinase activity vs control", "setting": "[2]", "result": "insignificant"},
      {"measurement": "MMP-9 gelatinase activity vs control", "setting": "[3]", "result": "insignificant"},
      {"measurement": "activity of secreted MMP-2", "setting": "[4]", "result": "failed to inhibit"},
      {"measurement": "activity of secreted MMP-2", "setting": "[4]; listed as dimerized peptide", "result": "less marked"},
      {"measurement": "activity of secreted MMP-9", "setting": "[5]", "result": "failed to inhibit"},
      {"measurement": "activity of secreted MMP-9", "setting": "[5]; listed as dimerized peptide", "result": "less marked"}
    ]}
  ]
}
